Laboratory results published in patent US10251865B2, “Method of activating regulatory T cells with alpha-2B adrenergic receptor agonists” (Allergan, Inc., priority 2010, dated 2019).

Assays:
tear TNF-alpha and IL17 = experiment: Dry eye desiccating stress in mice, adoptive transfer of CD4+ T cells, recipient tear cytokines; type: in vivo; details: donor mice treated 3 mg/kg/day for 10 days during desiccating stress; CD4+ T cells transferred to nude mice, FIG. 11
From the text: C57BL/6 (C57BL/6NTac) and B6.Cg/NTac-Foxn1nuNE9 were purchased from Taconic, Inc. (Germantown, N.Y.). Mice were used at 6-10 weeks of age. Animal studies approval was obtained from the Allergan Animal Care and Use Committee. All studies adhered to the Association for Research in Vision and Ophthalmology statement for the Use of Animals in Ophthalmic and Vision Research. As described in the literature dry eye was induced by treating mice with subcutaneous injections of scopolamine hydrobromide (0.5 mg/0.2 ml; Sigma-Aldrich, St. Louis, Mo.) three times a day alternating between the left and right flanks (Neiderkorn et al, 2006). […] Histological analysis was done by staining […] samples with antibody to CD4 and H&E staining to quantify goblet cells and T cells in the conjunctiva. […]
The levels of cytokines were measured with a sensitive, fluorescent multiplex immunobead assay (Luminex; Biosource-Invitrogen, Carlsbad, Calif.). […] Cytokine levels in samples were analyzed by using the corresponding Millipore cytokine Beadmate pairs. […] Beads were washed, resuspended in 125 μl of Beadlyte buffer, and analyzed by Luminex 100 instrument (Luminex Corporation, Austin, Tex.). The mean fluorescence intensities obtained from 50 beads per cytokine minimum were analyzed using Upstate Beadview software. […]

CD4+/CD25+ Treg cells = experiment: Treg cell frequency in lymphatic organs of SNL rats (flow cytometry); type: in vivo; details: SNL Rat Model of Allodynic Neuropathic Pain, FIG. 2
Description: The SNL (or Chung) Model in the rat is an accepted standard animal model of neuropathic pain and is thought to mimic the human causalgia condition with respect to symptoms (guarding behavior, mechanical allodynia) and alleviation by pharmacological agents. […] The SNL Model is performed by tightly ligating the L-5 and L-6 spinal nerves, which produces tactile allodynia or sensitivity to light touch as described (Kim and Chung, 1992). Male sprague-dawley rats (100-120 grams; Charles River, Wilmington, Mass.) were anesthetized through inhalation of an isoflurane/oxygen mix. The surgical site was shaved and prepared with betadine. An incision was made from the thoracic vertebra XIII toward down the sacrum. The muscle was separated from the spinal vertebra (left side) at the L4-S2 levels. […]
To determine surface expression of CD4 (Helper T cells), CD8 (killer T cells), CD25 (activated helper T cells and regulatory T cells), CD45 (macrophage and microglial cells) and F4/80 (macrophage and microglial cells) 5×10^5 cells/100 μL FACS buffer (PBS, 0.02% sodium azide [Sigma-Aldrich] and 2% bovine serum albumin) were incubated with appropriate antibodies from BD biosciences, Mountain View, Calif. […] Expression was analyzed (FACSCalibur with CellQuest software; BD Biosciences, Mountain View, Calif.).

Compound: CCC1=CC(Cc2c[nH]cn2)CCC1 (stereo not drawn) [Compound B]
- recipient tear level of IL-17 (tear TNF-alpha and IL17): significantly reduced
- recipient tear level of TNFα (tear TNF-alpha and IL17): significantly reduced
- frequency of spleen CD4+ T cells that are CD4+/CD25+ Treg cells (CD4+/CD25+ Treg cells): Sustained increase
